Results from patent US9271960B2, “Tetrahydrocarbazoles as active agents for inhibiting VEGF production by translational control” (PTC Therapeutics, Inc., priority 2004, dated 2016).

These compounds were tested on VEGF (assay: Hypoxia-inducible endogenous VEGF expression ELISA in HeLa cells). Conditions: Homo sapiens, HeLa, compounds 1-155, hypoxic conditions (1% O2), VEGF protein by ELISA, read-out: ELISA Activity.
Format: cell-based
How it was run: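 HeLa cells held 24–48 h in hypoxia (1% O2) with a concentration series of compound; VEGF secreted into media quantified by ELISA against a standard curve. Parallel Cell Titer Glo viability under identical conditions gives CC50; EC50 from percent-inhibition curves.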
`O=C1c2sccc2CN1C1CCCc2c1[nH]c1ccc(Br)cc21` (stereo not drawn) [Compound 5, 5-(6-Bromo-2,3,4,9-tetrahydro-1H-carbazol-1-yl)-4,5-dihydro-thieno[2,3-c]pyrrol-6-one] was tested, and the EC50 was less than 10 nM.
In the case of `O=C1N(c2ccccc2)C2CCCc3c2n1c1ccc(Br)cc31` (stereo not drawn) [Compound 112, 7-Bromo-2-phenyl-2a,3,4,5-tetrahydro-2H-2,9b-diaza-cyclopenta[jk]fluoren-1-one], the EC50 is reported as greater than 1000 nM.
In the case of `O/N=C1\CCCc2c1[nH]c1ccc(Br)cc21` [Compound 87, 6-Bromo-2,3,4,9-tetrahydro-carbazol-1-one oxime], the EC50 is reported as greater than 1000 nM.
Work on `O=C(NC1CCCc2c1[nH]c1ccc(Br)cc21)c1ccc(Oc2ccccc2)cc1` (stereo not drawn) [Compound 35, N-(6-Bromo-2,3,4,9-tetrahydro-1H-carbazol-1-yl)-4-phenoxy-benzamide] yielded an EC50 of 40 to 200 nM.
Compound `Brc1ccc2[nH]c3c(c2c1)CCCC3c1nnc(-c2ccccc2)o1` (stereo not drawn) [Compound 111, 6-Bromo-1-(5-phenyl-[1,3,4]oxadiazol-2-yl)-2,3,4,9-tetrahydro-1H-carbazole] has an EC50 greater than 1000 nM.
`Brc1ccc2[nH]c3c(c2c1)CCCC3NCCN1CCOCC1` (stereo not drawn) [Compound 122, (6-Bromo-2,3,4,9-tetrahydro-1H-carbazol-1-yl)-(2-morpholin-4-yl-ethyl)-amine] was tested, and the EC50 was greater than 1000 nM.
`Fc1cccc(NC2CCCc3c2[nH]c2ccc(Br)cc32)c1` (stereo not drawn) [Compound 12, (6-Bromo-2,3,4,9-tetrahydro-1H-carbazol-1-yl)-(3-fluoro-phenyl)-amine] was tested, and the EC50 was less than 10 nM.
In the case of `O=C1CCCc2c1oc1ccc(Br)cc21` [Compound 105, 8-Bromo-2,3-dihydro-1H-dibenzofuran-4-one], the EC50 is reported as greater than 1000 nM.
Work on `O=Cc1ccn(C2CCCc3c2[nH]c2ccc(Br)cc32)c1` (stereo not drawn) [Compound 38, 1-(6-Bromo-2,3,4,9-tetrahydro-1H-carbazol-1-yl)-1H-pyrrole-3-carbaldehyde] yielded an EC50 of 40 to 200 nM.
`COc1ccccc1NC1CCCc2c1[nH]c1ccc(Br)cc21` (stereo not drawn) [Compound 45, (6-Bromo-2,3,4,9-tetrahydro-1H-carbazol-1-yl)-(2-methoxy-phenyl)-amine] was tested, and the EC50 was 40 to 200 nM.
Work on `OCCc1cccc(NC2CCCc3c2[nH]c2ccc(Br)cc32)c1` (stereo not drawn) [Compound 63, 2-[3-(6-Bromo-2,3,4,9-tetrahydro-1H-carbazol-1-ylamino)-phenyl]-ethanol] yielded an EC50 of 200 to 1000 nM.
Work on `Cc1ccc(C)n1C1CCCc2c1[nH]c1ccc(Br)cc21` (stereo not drawn) [Compound 70, 6-Bromo-1-(2,5-dimethylpyrrol-1-yl)-2,3,4,9-tetrahydro-1H-carbazole] yielded an EC50 of 200 to 1000 nM.
In the case of `Brc1ccc2c3c([nH]c2c1)C(n1cccc1)CCC3` (stereo not drawn) [Compound 121, 7-Bromo-1-pyrrol-1-yl-2,3,4,9-tetrahydro-1H-carbazole], the EC50 is reported as greater than 1000 nM.
With `O=C(NC1CCCc2c1[nH]c1ccc(Br)cc21)c1ccc(Cl)nc1` (stereo not drawn) [Compound 52, N-(6-Bromo-2,3,4,9-tetrahydro-1H-carbazol-1-yl)-6-chloro-nicotinamide] the EC50 was 40 to 200 nM.
Compound `O/N=C1\CCCc2c1[nH]c1cc(Br)ccc21` [Compound 92, 7-Bromo-2,3,4,9-tetrahydro-carbazol-1-one oxime] has an EC50 greater than 1000 nM.
In the case of `O=C1c2ccccc2CN1C1CCCc2c1[nH]c1ccc(Br)cc21` (stereo not drawn) [Compound 25, 2-(6-Bromo-2,3,4,9-tetrahydro-1H-carbazol-1-yl)-2,3-dihydro-isoindol-1-one], the EC50 is reported as 10 to 40 nM.
In the case of `O=C(NC1CCCc2c1[nH]c1ccc(Br)cc21)c1ccc(F)cc1F` (stereo not drawn) [Compound 133, N-(6-Bromo-2,3,4,9-tetrahydro-1H-carbazol-1-yl)-2,4-difluoro-benzamide], the EC50 is reported as less than 10 nM.
`Brc1cccc2c3c([nH]c12)C(n1cccc1)CCC3` (stereo not drawn) [Compound 118, 8-Bromo-1-pyrrol-1-yl-2,3,4,9-tetrahydro-1H-carbazole] was tested, and the EC50 was greater than 1000 nM.
`Brc1ccc2[nH]c3c(c2c1)CCCC3Nc1ccc(-c2ccccc2)cc1` (stereo not drawn) [Compound 28, Biphenyl-4-yl-(6-bromo-2,3,4,9-tetrahydro-1H-carbazol-1-yl)-amine] was tested, and the EC50 was 10 to 40 nM.
Work on `Fc1ccc(OC2CCCc3c2[nH]c2ccc(Br)cc32)cc1` (stereo not drawn) [Compound 54, 6-Bromo-1-(4-fluoro-phenoxy)-2,3,4,9-tetrahydro-1H-carbazole] yielded an EC50 of 40 to 200 nM.
Compound `Brc1ccc2c3c([nH]c2c1)C(Nc1ccccc1)CCC3` (stereo not drawn) [Compound 47, (7-Bromo-2,3,4,9-tetrahydro-1H-carbazol-1-yl)-phenyl-amine] has an EC50 of 40 to 200 nM.
In the case of `Brc1ccc2[nH]c3c(c2c1)CCCC3c1nc2ccccc2[nH]1` (stereo not drawn) [Compound 142, 1-(1H-Benzoimidazol-2-yl)-6-bromo-2,3,4,9-tetrahydro-1H-carbazole], the EC50 is reported as 10 to 40 nM.
In the case of `CC1CCc2c(n(C)c3ccc(Br)cc23)C1=O` (stereo not drawn) [Compound 53, 6-Bromo-2,9-dimethyl-2,3,4,9-tetrahydro-carbazol-1-one], the EC50 is reported as 40 to 200 nM.

Same assay, conditions: Homo sapiens, HeLa, compounds 191-239, hypoxic conditions, VEGF protein by ELISA, read-out: ELISA Activity EC50
`OC(COc1ccc(C2CCCc3c2[nH]c2ccc(Cl)cc32)cc1)Cn1ccnc1` (stereo not drawn) [Compound 220] showed an EC50 of 10 to 40 nM.
`OC(COc1ccc(C2CCCc3c2[nH]c2ccc(Br)cc32)cc1)Cn1ccnc1` (stereo not drawn) [Compound 195] was tested, and the EC50 was less than 10 nM.
With `Brc1ccc2[nH]c3c(c2c1)CCCC3c1ccc(OCCCN2CCOCC2)cc1` (stereo not drawn) [Compound 210] the EC50 was less than 10 nM.
For `OC(COc1ccc(C2CCCc3c2[nH]c2ccc(Br)cc32)cc1)Cn1cncn1` (stereo not drawn) [Compound 203], the EC50 was 10 to 40 nM.
With `OC1CCc2c([nH]c3ccc(Br)cc23)C1c1ccccc1` (stereo not drawn) [Compound 236] the EC50 was 40 to 200 nM.
`Oc1ccc(C2CCCCc3c2[nH]c2ccc(Cl)cc32)cc1` (stereo not drawn) [Compound 230] gave an EC50 of less than 10 nM.
`CC(=O)N1CCN(CC(O)COc2ccc(C3CCCc4c3[nH]c3ccc(Br)cc43)cc2)CC1` (stereo not drawn) [Compound 197] gave an EC50 of less than 10 nM.
Compound `OC(COc1ccc(C2CCCCc3c2[nH]c2ccc(Cl)cc32)cc1)CN1CCOCC1` (stereo not drawn) [Compound 228] has an EC50 of 10 to 40 nM.
Compound `CC(=O)N1CCN(CCCOc2ccc(C3CCCc4c3[nH]c3ccc(Br)cc43)cc2)CC1` (stereo not drawn) [Compound 204] has an EC50 of 10 to 40 nM.
In the case of `OC(COc1ccc(C2CCCc3c2[nH]c2ccc(Br)cc32)cc1)CN1CCSCC1` (stereo not drawn) [Compound 199], the EC50 is reported as less than 10 nM.
`Brc1ccc2[nH]c3c(c2c1)CCCC3c1ccc(OCCCN2CCSCC2)cc1` (stereo not drawn) [Compound 206] was tested, and the EC50 was less than 10 nM.
Compound `OC(COc1ccc(C2CCCCc3c2[nH]c2ccc(Cl)cc32)cc1)Cn1ccnc1` (stereo not drawn) [Compound 231] has an EC50 of less than 10 nM.
With `Brc1ccc2[nH]c3c(c2c1)CCCC3c1ccc(OCCCn2ccnc2)cc1` (stereo not drawn) [Compound 211] the EC50 was less than 10 nM.
`OCC(O)COc1ccc(C2CCCc3c2[nH]c2ccc(Br)cc32)cc1` (stereo not drawn) [Compound 212] showed an EC50 of less than 10 nM.

Same assay, conditions: Homo sapiens, HeLa, purchased compounds 156-188, hypoxic conditions, VEGF protein by ELISA, read-out: ELISA Activity
Work on `CC(=O)SCCC(=O)N1CCn2c3c(c4cc(C)ccc42)CCCC31` (stereo not drawn) [Compound 182, Thioacetic acid S-[3-(8-methyl-1,2,3a,4,5,6-hexahydro-pyrazino[3,2,1-jk]carbazol-3-yl)-3-oxo-propyl] ester] yielded an EC50 greater than 1000 nM.
Work on `Cc1ccc2c(c1)c1c3n2CCN(CC(C)O)C3CCC1` (stereo not drawn) [Compound 176, 1-(8-Methyl-1,2,3a,4,5,6-hexahydro-pyrazino[3,2,1-jk]carbazoI-3-yl)-propan-2-ol] yielded an EC50 greater than 1000 nM.
`CC(C)COc1ccc2c(c1)c1c3n2CCNC3CCC1` (stereo not drawn) [Compound 167, 8-Isobutoxy-2,3,3a,4,5,6-hexahydro-1H-pyrazino[3,2,1-jk]carbazole] gave an EC50 greater than 1000 nM.
With `Cc1ccc2c(c1)c1c3n2CCN(N=O)C3CCC1` (stereo not drawn) [Compound 162, 8-Methyl-3-nitroso-2,3,3a,4,5,6-hexahydro-1H-pyrazino[3,2,1-jk]carbazole] the EC50 was 200 to 1000 nM.

Same assay, conditions: Homo sapiens, HeLa, purchased compounds 156-188, hypoxic conditions, VEGF protein by ELISA, read-out: ELISA EC50
For `CC(=O)SCCC(=O)N1CCn2c3c(c4cc(C)ccc42)CCCC31` (stereo not drawn) [Compound 182, Thioacetic acid S-[3-(8-methyl-1,2,3a,4,5,6-hexahydro-pyrazino[3,2,1-jk]carbazol-3-yl)-3-oxo-propyl] ester], the EC50 was greater than 10000 nM.
With `Cc1ccc2c(c1)c1c3n2CCN(CC(C)O)C3CCC1` (stereo not drawn) [Compound 176, 1-(8-Methyl-1,2,3a,4,5,6-hexahydro-pyrazino[3,2,1-jk]carbazoI-3-yl)-propan-2-ol] the EC50 was greater than 10000 nM.
`CC(C)COc1ccc2c(c1)c1c3n2CCNC3CCC1` (stereo not drawn) [Compound 167, 8-Isobutoxy-2,3,3a,4,5,6-hexahydro-1H-pyrazino[3,2,1-jk]carbazole] gave an EC50 of 6930 nM.
`Cc1ccc2c(c1)c1c3n2CCN(N=O)C3CCC1` (stereo not drawn) [Compound 162, 8-Methyl-3-nitroso-2,3,3a,4,5,6-hexahydro-1H-pyrazino[3,2,1-jk]carbazole] was tested, and the EC50 was 890 nM.
